Test systems include BT-549 breast; HS 578T breast; MCF7 breast; PC-3 prostate.
Common to all, as to experiment: inhibition of tumour cell growth, NCI panel, 48 h

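Five concentrations, 48 hours, 96-well plates. GI50 marks 50% less growth. TGI marks complete inhibition of growth.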

Regarding `CCCCCCCCCCN=C(c1ccc(N(C)C)cc1)c1ccc(N(C)C)cc1`, the GI50 is 857 nM in the assay on BT-549 breast, 1020 nM in the assay on HS 578T breast, 356 nM in the assay on MCF7 breast and 2710 nM in the assay with PC-3 prostate. Further, the TGI is 52.9 µM with BT-549 breast, 39.1 µM in the assay with HS 578T breast, over 100 µM in the assay on MCF7 breast and over 86 µM in the assay with PC-3 prostate.

As for `C=CCOC(=O)CC[N+]1=CCC(c2ccccc2)(c2ccccc2)O1`, the TGI in the assay on BT-549 breast, in the assay with HS 578T breast, in the assay on MCF7 breast and with PC-3 prostate was over 100 µM throughout.

In the case of `O=C(/C=C/c1ccccc1)CC(c1ccccc1)N1CCOCC1` (stereo not drawn), the GI50 with BT-549 breast is 1860 nM; with HS 578T breast, 4250 nM; with MCF7 breast, 4680 nM; in the assay with PC-3 prostate, 4540 nM. Besides, the TGI is 3.62 µM with BT-549 breast, 55 µM with HS 578T breast, 80.3 µM in the assay with MCF7 breast and 19.1 µM in the assay with PC-3 prostate.

`c1ccc2nc3c(cc4ccccn43)nc2c1`: the GI50 in the assay on BT-549 breast was over 100000 nM; in the assay with HS 578T breast, 61700 nM; in the assay with MCF7 breast it was over 100000 nM; with PC-3 prostate it was 63700 nM. Moreover, the TGI in the assay on BT-549 breast, with HS 578T breast, in the assay on MCF7 breast and with PC-3 prostate was over 100 µM throughout.

Regarding `CCCCCCCCCCCCCCCCCCNC(=O)[C@H]1CSC(c2cccs2)N1` (stereo partly drawn), the GI50 in the assay with BT-549 breast is 983 nM; in the assay with HS 578T breast it was 1170 nM; in the assay on MCF7 breast, 764 nM; in the assay on PC-3 prostate it was 1750 nM. Further, the TGI in the assay on BT-549 breast is 1.89 µM; in the assay with HS 578T breast, 2.98 µM; in the assay with MCF7 breast it was 1.58 µM; in the assay on PC-3 prostate it was over 50 µM.

In the case of `OC(c1ccc(Br)cc1)(c1cccs1)C1CC1` (stereo not drawn), the TGI in the assay on BT-549 breast turned out to be 58.2 µM; with HS 578T breast it was 49.5 µM; in the assay on MCF7 breast, 72.6 µM; in the assay with PC-3 prostate, 52.8 µM.

With `NC(=O)C1(N2CCCCC2)CCN(CCCC(=O)c2ccc(F)cc2)CC1`, the GI50 was 44.3 nM in the assay with BT-549 breast, 2370 nM in the assay on HS 578T breast, 108 nM with MCF7 breast and 2330 nM in the assay on PC-3 prostate. For the same molecule, the TGI with BT-549 breast was 14.1 µM; in the assay with HS 578T breast, over 100 µM; in the assay on MCF7 breast, over 100 µM; with PC-3 prostate it was over 100 µM.

Take `Cn1cc(-c2csc(-c3cn(C)c4ccccc34)n2)c2cnccc21`: the GI50 in the assay with BT-549 breast is 1680 nM; with HS 578T breast it was 2160 nM; in the assay on MCF7 breast it was 324 nM; in the assay on PC-3 prostate, 1470 nM. Also, the TGI with BT-549 breast came to 3.09 µM; with HS 578T breast, 4.65 µM; with MCF7 breast, 1.66 µM; in the assay on PC-3 prostate, 2.99 µM.

As to `Cc1ccc2c(c1)Sc1ccc(N=NN(C)C)cc1N2C`, the TGI with BT-549 breast, in the assay on HS 578T breast, in the assay with MCF7 breast and in the assay with PC-3 prostate was over 100 µM in each case.

On to `CCSc1nc(N)c2cn[nH]c2n1`, for which the GI50 with BT-549 breast is 52100 nM; in the assay with HS 578T breast it was 22200 nM; in the assay with MCF7 breast, 23000 nM; in the assay with PC-3 prostate, 19800 nM. In addition, the TGI in the assay on BT-549 breast is over 100 µM; with HS 578T breast, 70.1 µM; in the assay with MCF7 breast, 60.3 µM; with PC-3 prostate, 63.5 µM.

In the case of `CC1CCCc2c1nn(C(=O)/C=C(\N)c1ccccc1)c2N` (stereo not drawn), the GI50 is 24300 nM in the assay on BT-549 breast, 22400 nM in the assay with HS 578T breast, 7260 nM in the assay on MCF7 breast and 6540 nM with PC-3 prostate. In addition, the TGI was 93.7 µM in the assay on BT-549 breast, over 100 µM with HS 578T breast, over 100 µM in the assay on MCF7 breast and over 100 µM in the assay with PC-3 prostate.

Take `C[C@H]1[C@H](C)CC[C@]2(C(=O)NCCNCCN)CC[C@]3(C)C(=CC[C@@H]4[C@@]5(C)CCC(=O)C(C)(C)[C@@H]5CC[C@]43C)[C@H]12`: the GI50 in the assay with BT-549 breast is 6450 nM; in the assay on HS 578T breast, 1700 nM; in the assay on MCF7 breast, 1700 nM; with PC-3 prostate, 1740 nM. Further, the TGI turned out to be 24.1 µM in the assay on BT-549 breast, 3.74 µM in the assay with HS 578T breast, 3.25 µM in the assay with MCF7 breast and 3.81 µM with PC-3 prostate.

In the case of `O=C1C(SCCO)=C(SCCO)C(=O)c2ccccc21`, the TGI in the assay on BT-549 breast was determined as 2.89 µM; with HS 578T breast, 4.99 µM; in the assay on MCF7 breast it was 2.36 µM; in the assay with PC-3 prostate it was 6.1 µM.

Turning to `Cn1c([N+](=O)[O-])cnc1/C=C1\Oc2cc(Cl)ccc2C1=O`, the GI50 with BT-549 breast was 996 nM; with HS 578T breast it was 1690 nM; in the assay with MCF7 breast, 712 nM; in the assay with PC-3 prostate, 1360 nM. The TGI in the assay on BT-549 breast was 4.9 µM; in the assay with HS 578T breast, over 24.4 µM; with MCF7 breast, 13.3 µM; in the assay on PC-3 prostate it was over 24.1 µM.

Consider `CCN(CC)CCNC(=O)c1cn2ncnc(Oc3ccc(NC(=O)Nc4ccc(Cl)c(C(F)(F)F)c4)c(F)c3)c2c1C`, for which the GI50 in the assay with BT-549 breast was 1860 nM; in the assay with HS 578T breast it was 1520 nM; in the assay with MCF7 breast, 1400 nM; in the assay with PC-3 prostate, 1530 nM. Also, the TGI with BT-549 breast amounted to 3.48 µM; in the assay on HS 578T breast, 4.29 µM; in the assay with MCF7 breast, 3.15 µM; with PC-3 prostate, 3.3 µM.

Consider `O=C(O)CCC(NC(=S)S)C(=O)O.[Na+].[Zn+2]` (stereo not drawn), for which the GI50 in the assay on BT-549 breast, with HS 578T breast, with MCF7 breast and in the assay with PC-3 prostate was over 50000 nM each time. The TGI in the assay on BT-549 breast, in the assay with HS 578T breast, in the assay with MCF7 breast and with PC-3 prostate was over 50 µM each time.

As to `O=C(c1ccc2ccccc2c1)c1c(C(F)(F)F)n([O-])c2ccc(Cl)cc2[n+]1=O`, the GI50 was 1600 nM with BT-549 breast, 1790 nM in the assay with HS 578T breast and 417 nM with MCF7 breast. Further, the TGI in the assay with BT-549 breast amounted to 2.99 µM; in the assay with HS 578T breast, 3.72 µM; in the assay with MCF7 breast, 1.43 µM.

The values above are taken from PubChem BioAssay (NCI).
